US6552082B2, “Solution of N-[o-(p-pivaloyloxybenzenesulfonylamino)benzoyl] glycine monosodium salt tetra-hydrate and drug product thereof” (Ono Pharmaceutical Co., Ltd., priority 2000, dated 2003)

Legend:
[1] = change of pH in the time course on freeze-dried product comprising sodium carbonate; format: physicochemical
Procedure: (a) when the aqueous solution was prepared,
(b) when the prepared aqueous solution was filled in each vial (5 mL), freeze-dried and then dissolved in water (10 mL),
(c) when the prepared aqueous solution was filled in each vial (5 mL), freeze-dried and the formulation obtained was left at 60 degrees Centigrade for two weeks and dissolved in water (10 mL).

[2] = solubility of the compound (I) in normal solvents; format: physicochemical
[3] = stability of the drug products (pH and residual rate of freeze-dried products); format: physicochemical
Procedure: (i) an aqueous solution of tri-sodium phosphate dodecahydrate (36.4 mg/mL; 50 mL),
(ii) an aqueous solution of potassium hydroxide (56 mg/mL 6 mL),
(iii) an aqueous solution of sodium hydroxide (40 mg/mL; 5.6 mL)
(a) when the aqueous solutions were prepared,
(b) when the prepared aqueous solutions were filled in each vial (5 mL), freeze-dried and then dissolved in water (10 mL),
(c) when the prepared aqueous solution was filled in each vial (5 mL), freeze-dried and the drug product was left at 60 degrees Centigrade for two weeks (in case of sodium hydroxide for one month) and dissolved in water (10 mL).

[4] = investigation of pH adjusters: amount added, pH and clearness of suspension; format: physicochemical
Procedure: The present inventors have investigated the amounts of di-sodium hydrogen phosphate, tri-sodium phosphate, potassium hydroxide and sodium hydroxide to add and the changes in pH thereby.
Di-sodium hydrogen phosphate dodecahydrate (80 g) was added to water (200 mL) and dissolved by heating. To the above suspension under stirring with a stirrer was added the aqueous solution of Di-sodium hydrogen phosphate dodecahydrate by 5 mL each and the pH was measured.
To the suspension under stirring with a stirrer was added an aqueous solution of […] (4 g/100 mL) by 5 mL portion each and the pH was measured.
To the suspension under stirring with a stirrer was added 1N aqueous solution of potassium hydroxide (0.5 mL portion each) and the pH of the solution was measured.
To the suspension under stirring with a stirrer was added 1N aqueous solution of sodium hydroxide (1 mL portion each) and the pH was measured.

elastase = target: T1, elastase (Homo sapiens, UniProt P08246); conditions: background statement; cited from earlier work
T1 sequence (P08246 30-267): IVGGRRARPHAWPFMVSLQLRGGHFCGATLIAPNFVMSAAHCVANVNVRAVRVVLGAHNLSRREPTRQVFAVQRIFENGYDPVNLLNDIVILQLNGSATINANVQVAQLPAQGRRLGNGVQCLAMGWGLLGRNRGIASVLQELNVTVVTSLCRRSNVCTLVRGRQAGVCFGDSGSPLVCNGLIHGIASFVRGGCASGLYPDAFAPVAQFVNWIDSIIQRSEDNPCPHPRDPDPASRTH

[5] = amount of sodium hydroxide and stability in water/ethanol solution; format: physicochemical; conditions: pH over 8.5
Procedure: To the mixture added water in order to fill up to 5 mL of total solution.

[6] = investigation of a solution of high concentration; format: physicochemical; conditions: 400 mg compound (I), 100 mg mannitol, 24 mg sodium hydroxide, water to 5 mL
Procedure: To the mixture under stirring, was added IN aqueous solution of sodium hydroxide (0.6 mL: corresponds to 24 mg). Thereto was added water in order to fill up to 5 mL of total amount. […] Therefore it was impossible to freeze-dry the suspension.

[7] = admixing with amino acid infusion as replacement of pH adjusters; format: physicochemical; conditions: compound (I) 5 mg/mL admixed with KYORYOKU MORIAMINE infusion
[8] = formulation with sodium carbonate

pH (a) when the aqueous solution was prepared ([1]; formulation of JP kokai hei 5-194366 with sodium chloride and sodium carbonate): 7.80
pH (b) freeze-dried and then dissolved in water (10 mL) [1, 8]: 8.11
pH (c) freeze-dried, left at 60 degrees Centigrade for two weeks, dissolved in water (10 mL) [1, 8]: 8.44
residual rate of the compound (I) ([1]; freeze-dried product with sodium carbonate, 60 degrees Centigrade, two weeks): 91.4%
solubility ([2]; ethanol, organic solvent or mixture, read-out: solubility in ethanol): < 6 mg/mL
solubility ([2]; water, read-out: solubility in water): < 0.4 mg/mL
solubility ([3]; aqueous buffer, solvent exclusively water, with pH adjuster, read-out: solubility of the above solution (water with pH adjuster)): ~20 mg/mL
residual rate of the compound (I) ([3]; freeze-dried product with sodium hydroxide, 60 degrees Centigrade, 1 month): 98.3%
pH when the suspension turned into a clear aqueous solution ([4]; 5 mL of 1N potassium hydroxide added): 7.20
pH when the suspension turned into a clear aqueous solution ([4]; 7 mL of 1N sodium hydroxide added): 7.44
pH when the suspension turned into a clear aqueous solution ([4]; 45 mL of tri-sodium phosphate dodecahydrate solution added): 7.19
residual rate of the compound (I) [5]: over 98%
condition of the mixture (clear solution or not) ([6]; ethanol 1.0 mL): clear solution
pH after preparation [7]: 6.36
pH after twenty-four hours [7]: 6.13
residual rate of the compound (I) after twenty-four hours [7]: 54.1%
Compound: CC(C)(C)C(=O)Oc1ccc(S(=O)(=O)Nc2ccccc2C(=O)NCC(=O)[O-])cc1.[Na+] [compound (I), N-[o-(p-pivaloyloxybenzenesulfonylamino)benzoyl]glycine monosodium salt tetra-hydrate]
condition of the suspension (clear solution or not) ([4]; di-sodium hydrogen phosphate dodecahydrate solution 200 mL (80 g), pH 8.18): did not turn into a clear aqueous solution
inhibitory activity against elastase (elastase): has an inhibitory activity against elastase
condition of the mixture (clear solution or not) ([6]; no ethanol): did not turn into a clear solution but a white suspension
